Holding throughout (type): cell-based, HIV-1
One assay deals with HIV-IIIb (wildtype). Briefly: Antiviral assay in MT4 cells, HIV-IIIb wildtype. The following applies: read-out: WT EC50. The gist of the method:
(§1)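 Luminescence from CellTiter-Glo after a 5-day culture served as the measure of HIV-1 replication in MT4 cells. Cells were infected beforehand for 3 h with HIV-IIIb (0.004 m.o.i.) and exposed to ten 3-fold compound dilutions. EC50 corresponds to a 50% signal decrease.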

The test system of the next assay is HIV-IIIb IN T174I DE. In words: Antiviral assay in MT4 cells, HIV-IIIb IN T174I DE virus (from dose escalation passaging). The gist of the method:
as §1

The subject of a further assay is HIV-IIIb IN T174I BT. In words: Antiviral assay in MT4 cells, HIV-IIIb IN T174I BT virus (from viral breakthrough). The gist of the method:
as §1

The mark [1] stands for this setting: Human immunodeficiency virus 1, IIIB, MT4, 120 h.
The mark [2] stands for this setting: Human immunodeficiency virus 1, IIIB, MT4, 120 h, read-out: T174I DE EC50, MT4 cells, HIV-IIIb IN T174I DE (dose escalation), 5 days, CellTiter-Glo.
Setting [3] is: Human immunodeficiency virus 1, IIIB, MT4, 120 h, read-out: T174I BT EC50, MT4 cells, HIV-IIIb IN T174I BT (viral breakthrough), 5 days, CellTiter-Glo.
The mark [4] stands for this setting: Human immunodeficiency virus 1, 120 h, MT4 cells, HIV-IIIb wildtype, 5 days, CellTiter-Glo.

Molecules are shown by their SMILES. Read-outs that look alike come from different tables or passages of the source.

Take `Cc1cc2nc(-c3ccc4c(c3)c(N3CC[C@H](N(C)C)C3)nn4C)sc2c(-c2ccc(Cl)cc2)c1[C@H](OC(C)(C)C)C(=O)O` [Compound 93, (S)-2-(tert-butoxy)-2-(7-(4-chlorophenyl)-2-(3-((S)-3-(dimethylamino)pyrrolidin-1-yl)-1-methyl-1H-indazol-5-yl)-5-methylbenzo[d]thiazol-6-yl)acetic acid]: the EC50 in the assay with HIV-IIIb (wildtype) (setting [1]) was determined as 0.013 µM; with HIV-IIIb IN T174I DE (setting [2]) it was 3.45 µM; in the assay with HIV-IIIb IN T174I BT (setting [3]), 1.01 µM.
Taken in the same sequence, the figures for `Cc1cc2nc(-c3ccc4c(c3)c(N3CCN(C5COC5)CC3)nn4C)sc2c(-c2ccc(Cl)cc2)c1[C@H](OC(C)(C)C)C(=O)O` [Compound 104, (S)-2-(tert-butoxy)-2-(7-(4-chlorophenyl)-5-methyl-2-(1-methyl-3-(4-(oxetan-3-yl)piperazin-1-yl)-1H-indazol-5-yl)benzo[d]thiazol-6-yl)acetic acid] were 0.011 µM, 0.904 µM and 0.491 µM.
Consider `CCn1nc(C2CCN(C3COC3)CC2)c2nc(-c3nc4cc(C)c([C@H](OC(C)(C)C)C(=O)O)c(-c5ccc(Cl)cc5)c4s3)ccc21` [Compound 177, (S)-2-(tert-butoxy)-2-(7-(4-chloro-phenyl)-2-(1-ethyl-3-(1-(oxetan-3-yl)piperidin-4-yl)-1H-pyrazolo[4,3-b]pyridin-5-yl)-5-methylbenzo[d]thiazol-6-yl) acetic acid], for which the values for the EC50 in the assay with HIV-IIIb (wildtype) (setting [1]), with HIV-IIIb IN T174I DE (setting [2]) and in the assay on HIV-IIIb IN T174I BT (setting [3]) were 0.003 µM, 0.185 µM and 0.047 µM, respectively.
In the case of `Cc1cc2nc(-c3ccc4c(c3)c(C3=CCOC3)nn4C)sc2c(-c2ccc(Cl)cc2)c1[C@H](OC(C)(C)C)C(=O)O` [Compound 51, (S)-2-(tert-butoxy)-2-(7-(4-chlorophenyl)-2-(3-(2,5-dihydrofuran-3-yl)-1-methyl-1H-indazol-5-yl)-5-methylbenzo[d]thiazol-6-yl)acetic acid], the EC50 in the assay with HIV-IIIb (wildtype) (setting [1]) amounted to 0.015 µM; in the assay on HIV-IIIb IN T174I DE (setting [2]), 3.59 µM; in the assay on HIV-IIIb IN T174I BT (setting [3]), 2.73 µM.
As for `CC(=O)N1CC(N2CCC(c3cn(C)c4ncc(-c5nc6cc(C)c([C@H](OC(C)(C)C)C(=O)O)c(-c7ccc(Cl)cc7)c6s5)nc34)CC2)C1` [Compound 200, (S)-2-(2-(7-(1-(1-acetylazetidin-3-yl)piperidin-4-yl)-5-methyl-5H-pyrrolo[2,3-b]pyrazin-2-yl)-7-(4-chlorophenyl)-5-methylbenzo [d]thiazol-6-yl)-2-(tert-butoxy) acetic acid], the figures for the EC50 in the assay with HIV-IIIb (wildtype) (setting [1]), in the assay on HIV-IIIb IN T174I DE (setting [2]) and in the assay on HIV-IIIb IN T174I BT (setting [3]) were 0.001 µM, 0.241 µM and 0.09 µM, respectively.
For the compound `COC(=O)N1CC[C@@H](N2CCC(c3nn(C)c4ccc(-c5nc6cc(C)c([C@H](OC(C)(C)C)C(=O)O)c(-c7ccc(Cl)cc7)c6s5)cc34)CC2)C1` [Compound 165, (S)-2-(tert-butoxy)-2-(7-(4-chloro-phenyl)-2-(3-(1-((R)-1-(methoxy-carbonyl)pyrrolidin-3-yl)piperidin-4-yl)-1-methyl-1H-indazol-5-yl)-5-methylbenzo[d]thiazol-6-yl) acetic acid], the figures for the concentration giving a half-maximal response (EC50) with HIV-IIIb (wildtype) (setting [1]), in the assay with HIV-IIIb IN T174I DE (setting [2]) and in the assay with HIV-IIIb IN T174I BT (setting [3]) were 0.005 µM, 0.182 µM and 0.118 µM, respectively.
In the case of `CCn1nc(C2CCN(C3CN(C(=O)OC)C3)CC2)c2cc(-c3nc4cc(C)c([C@H](OC(C)(C)C)C(=O)O)c(-c5ccc(Cl)cc5)c4s3)ccc21` [Compound 48, (S)-2-(tert-butoxy)-2-(7-(4-chlorophenyl)-2-(1-ethyl-3-(1-(1-(methoxycarbonyl)azetidin-3-yl)piperidin-4-yl)-1H-indazol-5-yl)-5-methylbenzo[d]thiazol-6-yl)acetic acid], the 50% effective concentration (EC50) with HIV-IIIb (wildtype) (setting [1]) was 0.008 µM; in the assay with HIV-IIIb IN T174I DE (setting [2]), 0.165 µM; in the assay with HIV-IIIb IN T174I BT (setting [3]) it was 0.07 µM.
Regarding `COCC(=O)N1CCC(c2nn(C)c3ccc(-c4nc5cc(C)c([C@H](OC(C)(C)C)C(=O)O)c(-c6ccc(Cl)cc6)c5s4)cc23)C1` (stereo partly drawn) [Compound 76, (S)-2-(tert-butoxy)-2-(7-(4-chlorophenyl)-2-(3-((S)-1-(2-methoxyacetyl)pyrrolidin-3-yl)-1-methyl-1H-indazol-5-yl)-5-methylbenzo[d]thiazol-6-yl)acetic acid], the EC50 in the assay on HIV-IIIb (wildtype) (MT4 cells, HIV-IIIb wildtype, 5 days, CellTiter-Glo) worked out at 0.016 µM; in the assay with HIV-IIIb IN T174I DE (read-out: T174I DE EC50, MT4 cells, HIV-IIIb IN T174I DE (dose escalation), 5 days, CellTiter-Glo) it was 0.906 µM; in the assay with HIV-IIIb IN T174I BT (read-out: T174I BT EC50, MT4 cells, HIV-IIIb IN T174I BT (viral breakthrough), 5 days, CellTiter-Glo) it was 0.51 µM.
Consider `Cc1cc2nc(-c3ccc4c(c3)c(N3CC5CC(C3)O5)nn4C)sc2c(-c2ccc(Cl)cc2)c1[C@H](OC(C)(C)C)C(=O)O` [Compound 143, (2S)-2-(2-(3-(6-oxa-3-azabicyclo [3.1.1]heptan-3-yl)-1-methyl-1H-indazol-5-yl)-7-(4-chlorophenyl)-5-methylbenzo [d]thiazol-6-yl)-2-(tert-butoxy) acetic acid], for which the figures for the EC50 with HIV-IIIb (wildtype) (setting [4]), in the assay with HIV-IIIb IN T174I DE (setting [2]) and in the assay on HIV-IIIb IN T174I BT (setting [3]) were 0.027 µM, 5.61 µM and 5.78 µM, respectively.
Consider `Cc1cc2nc(-c3ccc4c(c3)c(C3CCN(C5CCC5)CC3)nn4C)sc2c(-c2ccc(Cl)cc2)c1[C@H](OC(C)(C)C)C(=O)O` [Compound 129, (S)-2-(tert-butoxy)-2-(7-(4-chloro-phenyl)-2-(3-(1-cyclobutylpiperidin-4-yl)-1-methyl-1H-indazol-5-yl)-5-methylbenzo[d]thiazol-6-yl) acetic acid], for which the EC50 turned out to be 0.005 µM in the assay with HIV-IIIb (wildtype) (setting [4]), 0.696 µM in the assay with HIV-IIIb IN T174I DE (setting [2]) and 0.509 µM in the assay with HIV-IIIb IN T174I BT (setting [3]).
As to `COC(=O)N1CC(N2CCC(c3nn(C)c4ccc(-c5nc6cc(C)c([C@H](OC(C)(C)C)C(=O)O)c(-c7ccc(Cl)cc7)c6s5)cc34)CC2)C1` [Compound 153, (S)-2-(tert-butoxy)-2-(7-(4-chloro-phenyl)-2-(3-(1-(1-(methoxycarbonyl)azetidin-3-yl)piperidin-4-yl)-1-methyl-1H-indazol-5-yl)-5-methyl-benzo[d]thiazol-6-yl)acetic acid], the EC50 came to 0.011 µM with HIV-IIIb (wildtype) (setting [1]), 0.217 µM with HIV-IIIb IN T174I DE (setting [2]) and 0.159 µM in the assay on HIV-IIIb IN T174I BT (setting [3]).
As for `Cc1cc2nc(-c3ccc4c(c3)c(N3CC5(COC5)C3)nn4C)sc2c(-c2ccc(Cl)cc2)c1[C@H](OC(C)(C)C)C(=O)O` [Compound 91, (S)-2-(tert-butoxy)-2-(7-(4-chlorophenyl)-5-methyl-2-(1-methyl-3-(2-oxa-6-azaspiro[3.3]heptan-6-yl)-1H-indazol-5-yl)benzo[d]thiazol-6-yl)acetic acid], the EC50 in the assay on HIV-IIIb (wildtype) (setting [1]) was found to be 0.011 µM; with HIV-IIIb IN T174I DE (setting [2]) it was 2.44 µM; with HIV-IIIb IN T174I BT (setting [3]) it was 1.72 µM.
For `CCn1nc2ccc(-c3nc4cc(C)c([C@H](OC(C)(C)C)C(=O)O)c(-c5ccc(Cl)cc5)c4s3)cc2c1C1CCN(C2COC2)CC1` [Compound 36, (S)-2-(tert-butoxy)-2-(7-(4-chlorophenyl)-2-(2-ethyl-3-(1-(oxetan-3-yl)piperidin-4-yl)-2H-indazol-5-yl)-5-methylbenzo[d]thiazol-6-yl)acetic acid], the EC50 in the assay on HIV-IIIb (wildtype) (setting [1]) amounted to 0.014 µM; in the assay on HIV-IIIb IN T174I DE (setting [2]) it was 3.58 µM; in the assay with HIV-IIIb IN T174I BT (setting [3]) it was 1.08 µM.
For `COCCN1CCN(c2nn(C)c3ccc(-c4nc5cc(C)c([C@H](OC(C)(C)C)C(=O)O)c(-c6ccc(Cl)cc6)c5s4)cc23)C1=O` [Compound 79, (S)-2-(tert-butoxy)-2-(7-(4-chlorophenyl)-2-(3-(3-(2-methoxyethyl)-2-oxoimidazolidin-1-yl)-1-methyl-1H-indazol-5-yl)-5-methylbenzo[d]thiazol-6-yl)acetic acid], the EC50 turned out to be 0.007 µM in the assay with HIV-IIIb (wildtype) (setting [1]), 2.18 µM in the assay on HIV-IIIb IN T174I DE (setting [2]) and 2.33 µM in the assay on HIV-IIIb IN T174I BT (setting [3]).
As for `Cc1cc2nc(-c3cnc4c(n3)c(C3CCN(C5COC5)CC3)cn4C)sc2c(-c2ccc(Cl)cc2)c1[C@H](OC(C)(C)C)C(=O)O` [Compound 16, (S)-2-(tert-butoxy)-2-(7-(4-chlorophenyl)-5-methyl-2-(5-methyl-7-(1-(oxetan-3-yl)piperidin-4-yl)-5H-pyrrolo[2,3-b]pyrazin-2-yl)benzo[d]thiazol-6-yl)acetic Acid], the EC50 is 0.002 µM in the assay on HIV-IIIb (wildtype) (setting [1]), 0.603 µM with HIV-IIIb IN T174I DE (setting [2]) and 0.104 µM in the assay with HIV-IIIb IN T174I BT (setting [3]).
`CCC(=O)N1CC(N2CCC(c3nn(C)c4ccc(-c5nc6cc(C)c([C@H](OC(C)(C)C)C(=O)O)c(-c7ccc(Cl)cc7)c6s5)cc34)CC2)C1` [Compound 7, (S)-2-(tert-butoxy)-2-(7-(4-chlorophenyl)-5-methyl-2-(1-methyl-3-(1-(1-propionylazetidin-3-yl)piperidin-4-yl)-1H-indazol-5-yl)benzo[d]thiazol-6-yl)acetic Acid]: the EC50 was found to be 0.014 µM with HIV-IIIb (wildtype) (setting [1]), 0.138 µM in the assay on HIV-IIIb IN T174I DE (setting [2]) and 0.114 µM in the assay on HIV-IIIb IN T174I BT (setting [3]).
Consider `Cc1cc2nc(-c3cnc4c(c3)c(N3CCN(C5COC5)CC3)nn4C)sc2c(-c2ccc(Cl)cc2)c1[C@H](OC(C)(C)C)C(=O)O` [Compound 112, (S)-2-(tert-butoxy)-2-(7-(4-chlorophenyl)-5-methyl-2-(1-methyl-3-(4-(oxetan-3-yl)piperazin-1-yl)-1H-pyrazolo[3,4-b]pyridin-5-yl)benzo[d]thiazol-6-yl)acetic Acid], for which the EC50 in the assay on HIV-IIIb (wildtype) (setting [1]) was 0.01 µM; in the assay with HIV-IIIb IN T174I DE (setting [2]) it was 2.11 µM; with HIV-IIIb IN T174I BT (setting [3]), 1.25 µM.

Values taken from US10800772B2 (Gilead Sciences, Inc., priority 2016, dated 2020).
